Results as given in patent publication US12228568B2, “Redox-labile fluorescent probes and their surface immobilization methods for the detection of metabolites” (The Regents of the University of California, priority 2018, dated 2025).
Where a SMILES comes first, the peptide text is derived from it. The star is where a group is joined. Biotin = O=C1N[C@H]2[C@H](CS[C@H]2CCCCC(=O)*)N1; X1 = O=C(c1c(O)ccc2c1oc1cc(=O)ccc-1[n+]2[O-])*

Tests used:
GBM39 cells = assay: SCBC single cell metabolic/proteomic measurements; format: cell-based, human; conditions: for glucose uptake / lactate production: erlotinib 1 μM 24 h or oligomycin A 0.1 μM 3 h vs DMSO
Description: We then sought to adapt the lactate assay for single cell level quantitation. The surface-based lactate assay was incorporated onto the SCBC platform, which consisted of a two-layer elastomer microfluidics device coupled to a DNA barcoded glass slide.^[5, 7] The device contained 384 programmable microchambers where cells were loaded and lysed for analysis. Each microchamber was equipped with a set of DNA barcode stripes, which served as a scaffold for multiplex measurements (FIG. 18). We quantified glucose uptake, lactate production and a panel of signaling proteins from GBM39 single cells. GBM39 is a human glioblastoma cell line that harbors a mutated form of the epidermal growth factor receptor (EGFR), which drives cell proliferation. Cells were treated with 1 μM of erlotinib (EGFR inhibitor), 0.1 μM of oligomycin A (ATPase inhibitor) or DMSO (control) before analysis.
GBM 39 primary neurospheres were provided by Prof. C. David James (UCSF, San Francisco, U.S.A.) and HK301 cells were provided by Prof. Harley Kornblum (UCLA, Los Angeles, U.S.A). Cells were cultured in Dulbecco's Modified Eagle Media Nutrient Mix F-12 (DMEM/F12, Thermo) supplemented with B27 (Invitrogen), Glutamax (Thermo), heparin (1 μg/mL, Sigma), Epidermal Growth Factor (EGF, […], Sigma), Fibroblast Growth Factor (FGF, 20 ng/mL, Sigma) and 100 U/mL of penicillin and streptomycin (Thermo) in a humidified 5% CO2 (v/v) incubator at 37° C. […] For the erlotinib group, the GBM 39 cells were treated for 24 h while for the oligomycin group, the cells were treated for 3 h. Afterwards, the treated cells were processed for tests.
For SCBC measurements, the as-prepared single cells were resuspended in warm media with 10 μg/mL of Gluc-Bio at 1 M cells/mL. After incubated at 37° C. for 30 min and washed with cold PBS for 3 times, the collected cell pellet was resuspended in serum-free, biotin-free media which contained 25 U/mL lactate dehydrogenase (LDH) and 25 U/mL diaphorase. The concentration of the as-prepared single cell suspension was 1 M cells/mL.
The single cell barcode chips (SCBC) were fabricated according to well-established procedures. DNA-encoded antibody library (DEAL) was grafted onto the surface through DNA hybridization to afford capture antibody arrays. The DNA-APRz conjugate can also be incorporated onto the surface barcode through the same procedure. […] 2) the lysis buffer was prepared to contain 2 mM of NAD^+.
The SCBC readouts from the microchambers with single cells were collected to form a data table. Each row of the table corresponds to a measurement of a panel of functional proteins from a single cell and each column contains digitized fluorescence intensities that provide readout of the levels of each of the assayed proteins. […]. Protein-protein Spearman's rank correlation coefficients were calculated. Bonferroni corrected p-value was used to define the statistical significance level for the entire panel and only those significant correlations were shown in the networks. Analyte-analyte correlation networks were generated by running the calculation through all the analyte pairs in panel.

[1] = Stability of modified resazurin probes; format: physicochemical; conditions: solution phase, 8 μM in PBS
Description: FIG. 7. Synthesis of the extended CRz bearing an aliphatic carboxyl group (CPRz). This carboxyl group could be readily converted to an NHS ester using standard coupling procedures. However, the ss-DNA-CPRz was not stable, and went through spontaneous self-reduction even at −20° C.
FIG. 10. Stability of Biotin-modified CRz (BRz) in solution phase. 8 μM in PBS. At 6 hrs, all the BPRz was reduced through adding 10 units of Diaphorase and 1 mM of NADH in PBS.
FIG. 11. Stability of the APRz probe (8 μM in PBS). The “reduced” signal was obtained through adding 10 units of Diaphorase and 1 mM of NADH to the APRz solution followed by a 1 hour incubation.
In order to be adapted to the SCBC platform, the probe immobilization process should be compatible with the single-stand DNA hybridization process.^[5] However, the N-oxide group on CRz confers strong redox lability. Consequently, the attempt of conjugating the amine-modified CRz to a single strand DNA (ssDNA) was unsuccessful.

[2] = Surface-based lactate assay on immobilized resazurin probes (coupled LDH/diaphorase reactions); format: biochemical; conditions: surface-immobilized probe; sodium lactate, NAD+, LDH and diaphorase
Description: We then evaluated the BRz and APRz probes for their performance in lactate detection experiments. BRz was immobilized onto the surface through ssDNA-streptavidin conjugates. Similarly, dibenzocyclooctyne-modified ssDNA enabled surface grafting of APRz molecules (FIG. 3, panel a).^[10] The resazurin-modified surfaces were exposed to a solution containing a mixture of sodium lactate, nicotinamide adenine dinucleotide (NAD+), lactate dehydrogenase (LDH) and diaphorase. In this case, the enzyme reaction cascade shown in FIG. 1, panel a translates the lactate quantity to fluorescence readouts.
A 16-well PDMS slab was placed onto a microscope glass slide, on which single strand DNA oligomers are patterned in 20 μm stripes. The volume of each well is 50 μL and it is equipped with at least eight sets of DNA barcode strips. […]
Subsequently, each well was washed with PBST for three times. At this stage, the APRz probe was immobilized to the surface and ready to use.
To obtain the standard curve for lactate quantification, 20 μL of NAD+ solution (1 mM in PBST), 1 μL of LDH solution (1 kU in ammonium sulfate buffer), 1 μL of diaphorase solution (1 kU/mL in PBS) and 20 μL of lactate solution (various concentrations in PBST) was added to each well and the device was incubated at room temperature for one hour. […] The surface fluorescence intensity was then measured by a microscanner. […]

[3] = Interference of intracellular reducing agents with APRz detection; format: biochemical; conditions: Glutamine 6 mM; Glucose 6 mM; Ascorbate 100 nM; Glutathione 6 mM; APRz 8 µM in PBS
Description: FIG. 15. Comparison of the reaction kinetics using different reducing agents.
A potential concern of employing the enzymatic mechanism for lactate quantitation was the specificity of the method. The complex intracellular contents always pose strong challenges on such redox-based methods. […] In order to evaluate the combined interference from all intracellular components, we further performed validation using GBM39 cell lysates.

SMILES	glucose uptake (GBM39 cells)	lactate production (GBM39 cells)	fluorescence increase within the assay duration [3]	reaction kinetics of APRz reduction by reducing agent [3]	further results
C#Cc1cccc(Nc2ncnc3cc(OCCOC)c(OCCOC)cc23)c1 [erlotinib]	dramatically decreased	dramatically decreased	–	–	phosphorylation levels on EGFR as well as downstream signaling proteins (GBM39 cells; erlotinib 1 μM 24 h vs DMSO): significant down regulation
NCCCC[C@H](NC(=O)CNC(=O)CCCC[C@@H]1SC[C@@H]2NC(=O)N[C@@H]21)C(=O)NCC(=O)N[C@@H](CCCCN)C(=O)NCC(=O)N[C@@H](CCCCN)C(=O)NCC(=O)N[C@@H](CCCCNC(=O)c1c(O)ccc2c1oc1cc(=O)ccc-1[n+]2[O-])C(=O)NCC(N)=O [BRz] (Biotin-GKGKGKGK(X1)G-NH2)	–	–	–	–	stability of probe [1]: superior stability; increase of fluorescence intensity after lactate conversion [2]: unsatisfactory fluorescence increase
CC[C@H]1/C=C/C=C/C[C@@H](C)[C@H](O)[C@@](C)(O)C(=O)[C@@H](C)[C@H](O)[C@@H](C)C(=O)[C@@H](C)[C@H](O)[C@@H](C)/C=C/C(=O)O[C@@H]2[C@H](C)[C@H](CC1)O[C@]1(CC[C@H](C)[C@H](C[C@@H](C)O)O1)[C@H]2C [oligomycin, oligomycin A]	slightly higher	significantly increased	–	–	phosphoproteins downstream of the EGFR signaling pathway (GBM39 cells; oligomycin A 0.1 μM 3 h vs DMSO): suppress
N[C@@H](CCC(=O)N[C@@H](CS)C(=O)NCC(=O)O)C(=O)O [glutathione]	–	–	insignificant fluorescence increase	very slow reaction kinetics	–
O=C1O[C@H]([C@@H](O)CO)C(O)=C1O [ascorbic acid]	–	–	insignificant fluorescence increase	very slow reaction kinetics	–
